Data taken from patent publication US20020049157A1, “Use of proteasome inhibitors for treating cancer, inflammation, autoimmune disease, graft rejection and septic shock” (priority 1998, published 2002).

Key:
[1] = system: Jurkat cells; assay: Cell cycle progress in synchronized Jurkat cells (propidium iodide flow cytometry); format: cell-based
Protocol: For the last 3 h of the treatment, LAC (6 μM) was added to the cultures destined to be treated by LAC later. The cells were then released by washing out nocodazole, and recultured in complete medium with or without 6 μM LAC. The cells were sampled at 0 h, 4 h and 8 h after the G2/M release, stained with propidium iodide, and analyzed with flow cytometry.
B. LAC slows the cell cycle progress from the G1/S boundary to the G2/M phase in synchronized Jurkat cells Jurkat cells were synchronized at the G1/S by isoleucine starvation followed by a hydroxyurea treatment. The synchronized cells were released by washing out hydroxyurea and were cultured in complete medium in the absence or presence of LAC (6 μM). The cells were sampled at 0 h, 3 h, 6 h, 9 h, 12 h, 15 h and 24 h after the release, and were stained with propidium iodide and analyzed with flow cytometry.
We used synchronized Jurkat cells to identify the LAC-sensitive phase(s) of the cell cycle. Jurkat cells were first synchronized at the G2/M boundary by nocodazole (FIG. 6A). […]
We next studied requirement of the proteasome activity for the progression from the G1/S boundary to the G2/M phase. […] It is to be noted that although the percentage of cells in the S/G2/M phase in the LAC-treated sample was similar to that of controls (the inset table of FIG. 6B), the peak of fluorescence was lagged behind (histogram array). […]

[2] = system: CD25; assay: CD25 (IL-2Rα) upregulation by two-color flow cytometry; format: cell-based, human; details: PHA; LAC 10 μM added in the beginning of the culture
Protocol: CD25 expression on T cells was evaluated by anti-CD25-PE/anti-CD3-FITC two-color flow cytometry. Similar results were obtained in two independent experiments, and a representative one is shown. The data are presented as two color histograms in forms of contours, as well as in an overlay histogram.
In the four systems of T and B cell activation and proliferation studied in the first section, the growth promoting activity of IL-2 is indirectly (for stimulation by PHA, anti-CD3, and anti-CD28 plus ionomycin), or directly (for SAC plus IL-2) involved. We then investigated the role of proteasome in IL-2Rα expression and IL-2 production. […] Under the experimental condition used, the viability of the LAC-treated cell was reasonable (>80% at 40 h) as described in the previous section as LAC was added only once initially. Moreover, no consistent change of IL-2 production in LAC-treated cells was a functional indication that the cell viability was reasonable and is not of a concern in interpreting the data. The results from this section indicate that IL-2Rα upregulation but not IL-2 production is proteasome-dependent, and the suppressed IL-2Rα expression likely contributes to LAC's inhibitory effect on T cells activation and proliferation. The Proteasome Activity is Critically Required Between G0 and G1/S Boundary in T Cells […]

[3] = system: mouse lymph node cells; assay: Aggregate formation of Con A-stimulated lymph node cells; format: cell-based; details: 2 μg/ml Con A plus 10 μM lactacystin; 24 h
Text: Cell-cell interaction is essential in antigen presentation and in T cell's help to T and B cells. The adhesion molecules are necessary to establish the cell-cell interaction. Blocking the adhesion molecules ICAM-1 and LFA-1 is known to inhibit immune responses and to suppress graft rejection. […] Therefore, inhibition of the proteasome activity will be a useful way to control undesirable immune responses during graft rejection, autoimmune diseases, and inflammation.

[4] = system: Bik; assay: Immunoblotting of Bik in mitochondrial fraction of Jurkat cells; format: cell-based; details: lactacystin 6 μM
Protocol: Jurkat cells were treated with lactacystin (6 μM) for 5 h (lanes 2 and 4 of panel […]) or 7 h (lane 3 of panel B), lane 1 in panels A and B is untreated control samples. The cells were separated into mitochondrial (mito in panel A and mitochondria in panel B) and cytosolic (cytosol in panel A) fractions, and the lysate of these two fractions analyzed by immunoblotting using goat anti-Bik, and rabbit anti-Bax, Bak and Bad Ab (all from Santa Cruz Biotech, Santa Cruz, Calif.) followed by enhanced chemiluminescence (ECL, kit from Amersham). […] Jurkat cells, wild type Namalwa cells and Bcl-xL transfected Namalwa cells were treated with medium (lanes 1), staurosporine (0.3 μM, lanes 2) and lactacystin (6 μM, lanes 3) for 6 H. The proteins from the mitochondrial fraction of these cells were analyzed by immunoblotting and the amount of Bik, Bcl-xL, Bax, and Bak evaluated. The same membranes were used sequentially and probed with different antibodies against these factors. A nonspecific band recognized by a monoclonal antibody against cytochrome […] (COX) was used as control for even sample loading in the lanes.

CC(=O)N[C@@H](CSC(=O)[C@]1([C@@H](O)C(C)C)NC(=O)[C@H](C)[C@@H]1O)C(=O)O [LAC, lactacystin]
cell cycle progression from the G1/S boundary to the G2/M phase ([1]; HU-synchronized, LAC 6 μM added immediately after release): slowed but did not block
progress from G2/M through M phase to G1 phase ([1]; nocodazole-synchronized, LAC 6 μM 3 h before and after release): at a similar pace as the control cells
CD25 upregulation in CD3+ T cells [2]: significantly inhibited
aggregate formation [3]: effectively block the aggregate formation
accumulation of Bik in Jurkat cells ([4]; 6 h, staurosporine 0.3 μM): accumulates
amount of Bik ([4]; 4 h, 5 h and 7 h): demonstable increase
